In patent publication US11661431B2, “Thienopyrrole compounds” (Gilead Sciences, Inc., priority 2021, dated 2023):
Values after ≈ are worked out from the molar mass of the structure shown. Like-named read-outs stand apart in the source and are kept apart here.

Legend:
TLR8 = TLR8 (Homo sapiens (Human), UniProt Q9NR97); experiment: TLR8 human peripheral blood mononuclear cell (PBMC) cell-based assay (Compound A as agonist; TNFα and IL12p40 readout); conditions: human PBMCs, TLR8 agonist Compound A at 800 nM, 6 hours, antagonist potency; read-out: TLR-8 EC50
TLR8, sequence (Q9NR97 27-1041): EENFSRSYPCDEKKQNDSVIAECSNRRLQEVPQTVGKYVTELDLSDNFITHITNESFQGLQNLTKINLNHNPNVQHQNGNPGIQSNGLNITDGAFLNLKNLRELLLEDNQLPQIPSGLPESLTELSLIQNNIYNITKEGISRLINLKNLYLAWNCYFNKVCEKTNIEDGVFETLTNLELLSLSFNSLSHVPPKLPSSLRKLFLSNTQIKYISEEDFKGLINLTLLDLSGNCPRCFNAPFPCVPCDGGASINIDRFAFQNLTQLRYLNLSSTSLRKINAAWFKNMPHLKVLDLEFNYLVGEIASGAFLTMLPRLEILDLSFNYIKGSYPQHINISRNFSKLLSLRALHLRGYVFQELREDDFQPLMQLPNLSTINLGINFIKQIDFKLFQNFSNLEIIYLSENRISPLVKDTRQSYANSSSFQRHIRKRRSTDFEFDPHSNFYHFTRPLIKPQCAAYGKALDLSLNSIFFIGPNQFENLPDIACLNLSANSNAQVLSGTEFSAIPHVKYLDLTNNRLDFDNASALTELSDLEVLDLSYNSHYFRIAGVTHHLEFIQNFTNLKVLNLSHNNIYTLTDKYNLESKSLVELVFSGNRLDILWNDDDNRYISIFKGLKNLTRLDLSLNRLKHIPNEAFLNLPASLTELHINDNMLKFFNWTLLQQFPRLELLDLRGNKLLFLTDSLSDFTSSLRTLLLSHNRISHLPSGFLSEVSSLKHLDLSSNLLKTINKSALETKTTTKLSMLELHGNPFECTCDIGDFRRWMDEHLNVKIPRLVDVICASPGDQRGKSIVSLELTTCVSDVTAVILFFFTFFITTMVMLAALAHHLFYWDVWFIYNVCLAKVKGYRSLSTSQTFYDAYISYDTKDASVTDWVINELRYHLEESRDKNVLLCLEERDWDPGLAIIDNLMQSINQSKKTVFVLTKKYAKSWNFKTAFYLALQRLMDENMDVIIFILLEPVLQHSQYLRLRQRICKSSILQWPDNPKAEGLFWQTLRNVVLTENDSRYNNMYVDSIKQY

[1] = Kinetic solubility at pH 7.4; conditions: 1×PBS buffer (pH 7.4), 22.8 °C, pH 7.4, aqueous buffer, kinetic from dmso stock
Experimental: Kinetic Solubility at pH 7.4
The final DMSO Concentration was 1.0% and maximum theoretical compound concentration is 100 μM. The filter plate was sealed. […] The collection plate was sealed for analysis.
Filtrates were injected into the nitrogen detector for quantification on Analiza's Automated Discovery Workstation. The results are reported in μg/ml.
The filtrates were quantified with respect to this calibration curve. The calculated solubility values were corrected for background nitrogen present in the DMSO, and the media used to prepare the samples.
The 1×PBS buffer (pH 7.4) was prepared by adding 50 mL of phosphate buffered saline solution 10×, PBS (Fisher Bioreagent part number BP399-500) to approximately 450 mL HPLC grade H2O. The volume of the solution was then adjusted to 500 mL for a total dilution factor of 1:10 and a final PBS concentration of 1×. The pH of the final solution was measured and found to be 7.4.
Each compound tested was analyzed as a trifluoroacetate salt.

TLR7 = TLR7 (Homo sapiens (Human), UniProt Q9NYK1); experiment: TLR7 human peripheral blood mononuclear cell (PBMC) cell-based assay (GS-986 as agonist; IL-6 and IFNα readout); conditions: human PBMCs, TLR7 agonist GS-986 at 400 nM, 6 hours, antagonist potency; read-out: TLR-7 EC50
TLR7, sequence (Q9NYK1 27-1049): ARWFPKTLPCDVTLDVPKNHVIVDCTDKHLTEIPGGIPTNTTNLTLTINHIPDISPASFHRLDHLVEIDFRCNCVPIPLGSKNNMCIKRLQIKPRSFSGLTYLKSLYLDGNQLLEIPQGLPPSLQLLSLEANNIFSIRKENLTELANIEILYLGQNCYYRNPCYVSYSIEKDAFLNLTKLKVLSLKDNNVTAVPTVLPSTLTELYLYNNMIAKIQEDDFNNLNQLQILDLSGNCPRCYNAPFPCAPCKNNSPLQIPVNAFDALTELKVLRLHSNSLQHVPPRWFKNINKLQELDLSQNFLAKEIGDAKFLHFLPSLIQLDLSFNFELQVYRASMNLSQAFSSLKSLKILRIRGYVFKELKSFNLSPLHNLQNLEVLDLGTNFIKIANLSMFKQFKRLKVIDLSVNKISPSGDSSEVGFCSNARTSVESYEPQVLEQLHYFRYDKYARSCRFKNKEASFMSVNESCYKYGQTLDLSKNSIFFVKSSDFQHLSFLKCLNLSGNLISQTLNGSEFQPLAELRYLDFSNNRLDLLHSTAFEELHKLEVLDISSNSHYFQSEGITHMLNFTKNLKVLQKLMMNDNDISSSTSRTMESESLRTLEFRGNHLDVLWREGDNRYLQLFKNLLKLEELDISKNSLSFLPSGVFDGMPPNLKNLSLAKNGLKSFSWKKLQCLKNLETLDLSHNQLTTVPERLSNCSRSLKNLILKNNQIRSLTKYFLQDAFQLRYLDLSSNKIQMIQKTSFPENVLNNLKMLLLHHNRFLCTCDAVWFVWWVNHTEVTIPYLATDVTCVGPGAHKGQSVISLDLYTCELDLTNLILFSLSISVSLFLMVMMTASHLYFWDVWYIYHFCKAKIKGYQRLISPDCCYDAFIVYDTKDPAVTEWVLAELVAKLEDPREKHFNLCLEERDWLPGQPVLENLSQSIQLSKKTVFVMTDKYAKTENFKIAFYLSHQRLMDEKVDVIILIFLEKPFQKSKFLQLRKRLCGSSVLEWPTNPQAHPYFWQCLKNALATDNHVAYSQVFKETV
In short: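 Human PBMCs (100,000 cells/well) preincubated 1 h at 37 °C with antagonist in 10-point dose response, then stimulated with TLR7 agonist for a further 6 h at 37 °C, 5% CO2. Supernatant IL-6 and IFNα measured by electrochemiluminescence immunoassay.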

[2] = molecular target: MATE2-K (multidrug and toxin extrusion protein 2) (Homo sapiens (Human), UniProt Q86VL8); experiment: MATE2-K IC50 assay (14C-metformin uptake in transfected MDCK-II cells); format: in vitro ADME
MATE2-K (multidrug and toxin extrusion protein 2), sequence (Q86VL8 other isoform, or with tags, fused parts or gaps, species assumed): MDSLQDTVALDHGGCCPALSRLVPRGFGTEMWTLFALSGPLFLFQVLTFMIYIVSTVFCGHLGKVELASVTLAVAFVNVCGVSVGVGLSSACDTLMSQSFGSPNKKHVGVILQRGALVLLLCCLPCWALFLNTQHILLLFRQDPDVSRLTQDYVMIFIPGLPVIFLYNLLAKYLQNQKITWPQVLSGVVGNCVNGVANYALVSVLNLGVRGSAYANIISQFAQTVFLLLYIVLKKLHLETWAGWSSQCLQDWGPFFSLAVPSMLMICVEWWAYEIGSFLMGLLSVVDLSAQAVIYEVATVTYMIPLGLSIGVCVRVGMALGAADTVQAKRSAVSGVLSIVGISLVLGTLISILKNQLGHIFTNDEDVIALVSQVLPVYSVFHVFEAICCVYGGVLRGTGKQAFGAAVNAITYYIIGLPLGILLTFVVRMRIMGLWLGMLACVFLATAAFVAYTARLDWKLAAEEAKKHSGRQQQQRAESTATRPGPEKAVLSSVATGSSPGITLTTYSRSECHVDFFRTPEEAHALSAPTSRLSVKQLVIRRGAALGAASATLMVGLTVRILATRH
Experimental: MATE2-K (multidrug and toxin extrusion protein 2) is expressed in the apical membrane in the kidney and mediates the elimination of compounds to urine. MDCK-II cells were maintained in DMEM with low glucose and 10% FBS. Cells passages up to 40 were seeded at 60K±10K cells/well on 96-well, transwell membrane plates approximately 24 hours before transfection. Transport assays were carried out approximately 48 hours after transfection. […]. The assay plate was then placed in a 37° C. incubator with orbital shaking at approximately 60 RPM for the pre-incubation time of 15 minutes. […]. The assay plate was incubated at 37° C. with orbital shaking at approximately 60 RPM for the incubation time of 5 minutes. At end of the 5-minute incubation, 15 μL of dosing solution was removed from each well containing the compound being tested and measured using LC/MS/MS for dose recovery assessment. The assay wells were then washed four times with ice cold PBS. 60 μL cell extraction solution was added to each well and the plate was incubated at 37° C. with orbital shaking at approximately 60 RPM for the 15 minutes. After this incubation, 30 μL was removed from each well, added to 200 μL scintillation fluid, and counted on a 1450 Microbeta (Perkin-Elmer) to measure the probe substrate uptake. Inhibition potential of the compound being tested was calculated by dividing the transporter-mediated uptake rate in presence of the compound being tested or the reference inhibitor by the transporter-mediated uptake rate in presence of vehicle control and fitted to a sigmoidal function to determine the IC50 values.

[3] = system: cryopreserved hepatocytes; experiment: Human hepatic stability in cryopreserved hepatocytes; conditions: 1×10^6 cells/mL, aliquots at 0, 1, 3 and 6 hours, LC-MS/MS
Experimental: Each tested compound was incubated in suspensions of cryopreserved hepatocytes at a final concentration of 1 μM. Vials containing cryopreserved hepatocytes were removed from liquid nitrogen and immediately immersed in a 37° C. water bath. The vials were swirled gently until the contents had thawed. They were then immediately emptied into 48 mL of pre-warmed HT medium in a 50 mL conical tube. Cells remaining in the vial were resuspended with 1.0 mL of pre-warmed HT medium and added to the conical tube. The tube was capped and then gently inverted several times to re-suspend the hepatocytes. The cell suspension was centrifuged at 500×g for 10 minutes at room temperature and the supernatant discarded. The cell pellet was loosened by gently swirling the centrifuge tube. Non-supplemented KHB medium was added to obtain the appropriate target cell density.
For incubations, aliquots of hepatocyte suspension (250 mL at a concentration of 2×10^6 cells/mL) were added to 250 mL of 2 mM of each tested compound in KHB, in duplicate wells in a 24-well plate. Final concentration in the incubations were 1×10^6 cells/mL and 1 mM of each tested compound. […] A cell-free control was also tested in parallel with the incubations. The incubations were carried out with gentle shaking in a 37° C. incubator under a humid atmosphere of 95% air/5% CO2 (v/v). Aliquots (100 mL) were removed after 0, 1, 3, and 6 hours and added to 200 mL IS/Q. The samples were then placed on a shaker for 10 min followed by centrifugation at 3000×g for 20 min. The supernatant was transferred to a new plate and diluted with 100 μL of water to reduce the organic solvent content and then placed on a shaker for 10 mins. Samples were injected and analyzed using LC-MS/MS.

[4] = transfected MDCK-II cells, 10 μM 14C-metformin probe substrate, read-out: MATE2-K IC50

| SMILES | EC50 (TLR8) [nM] | solubility kinetic at 24 h [1] [µg/mL] | EC50 (TLR7) [nM] | IC50 [2, 4] [nM] | Predicted Clearance [3] [mL/min/kg] | IC50 [2] [nM] |
| --- | --- | --- | --- | --- | --- | --- |
| Cc1c(-c2[nH]c3sc([C@@H]4C[C@@H]5C[C@H]4CN5C(C)C(N)=O)c(C)c3c2C(C)C)cn2ncnc2c1C (single isomer, unassigned) [Example 100] | 0.71 | 23.5 (≈ 47.9 µM) | 0.32 | 9700 |  |  |
| Cc1c(-c2[nH]c3sc(C4CCN(C(=O)[C@H]5COCCN5)CC4)c(C)c3c2C(C)C)cn2ncnc2c1C [Example 56] | 2.46 | 26.5 (≈ 50.9 µM) | 0.24 | 7700 | 4.17 |  |
| CNC(=O)CN1C[C@@H]2C[C@H]1C[C@H]2c1sc2[nH]c(-c3cn4ncnc4c(C)c3C)c(C(C)C)c2c1C [Example 82] | 0.17 |  | 0.37 |  |  | > 14500 |
| Cc1c(-c2[nH]c3sc([C@H]4C[C@H]5C[C@@H]4CN5CC(N)=O)c(C)c3c2C(C)C)cn2ncnc2c1C [Example 84] | 0.81 |  | 0.13 |  | 8.83 |  |
| Cc1c(-c2[nH]c3sc([C@@H]4C[C@@H]5C[C@H]4CN5CC(N)=O)cc3c2C(C)C)cn2ncnc2c1C [Example 97] | 1.09 | 22.8 (≈ 49.3 µM) | 0.31 |  | 13.5 |  |
| Cc1c(-c2[nH]c3sc(C4CCN(C(=O)[C@H]5CCCN5)CC4)c(C)c3c2C(C)C)cn2ncnc2c1C [Example 98] | 4.48 | 24.9 (≈ 49.3 µM) | 0.05 |  | 1.83 |  |
| Cc1c(-c2[nH]c3sc([C@@H]4C[C@@H]5C[C@H]4CN5Cc4cn(C)nn4)c(C)c3c2C(C)C)cn2ncnc2c1C [Example 175] | < 0.05 | 21.1 (≈ 41 µM) | < 0.05 |  | 4.33 |  |
| Cc1c(-c2[nH]c3sc([C@H]4C[C@@H]5C[C@H]4CN5CC(N)=O)c(C)c3c2C(C)C)cn2ncnc2c1C [Example 183] | 2.82 |  | 0.07 |  | 10.7 |  |
| Cc1c(-c2[nH]c3sc(C4CCN(CC(N)=O)CC4)cc3c2C(C)C)cn2ncnc2c1C [Example 221] | 3.2 | 1 (≈ 2.22 µM) | 0.99 |  | 2.67 |  |
| Cc1c(-c2[nH]c3sc([C@@H]4C[C@@H]5C[C@H]4CN5CCO)c(C)c3c2C(C)C)cn2ncnc2c1C [Example 229] | 0.35 | 27.7 (≈ 59.7 µM) | 0.06 |  | 3.67 |  |
| Cc1c(-c2[nH]c3sc(C4CCN(C5CCNC5=O)CC4)c(C)c3c2C(C)C)cn2ncnc2c1C (centres unmarked) [Example 287, 3-[4-[5-(7,8-dimethyl-[1,2,4]triazolo[1,5-a]pyridin-6-yl)-4-isopropyl-3-methyl-6H-thieno[2,3-b]pyrrol-2-yl]-1-piperidyl]pyrrolidin-2-one] | 12.4 |  | 0.43 |  |  |  |
| Cc1c(-c2[nH]c3sc(C4CCN(C5CCN(C)C5=O)CC4)c(C)c3c2C(C)C)cn2ncnc2c1C (centres unmarked) [Example 288] | 22.6 |  | 2.74 |  |  |  |
| Cc1c(-c2[nH]c3sc(C4CCN(CC5CCN(C)C5=O)CC4)c(C)c3c2C(C)C)cn2ncnc2c1C (centres unmarked) [Example 289] | 2.33 |  | 0.72 |  |  |  |
| Cc1c(-c2[nH]c3sc([C@@H]4C[C@@H]5C[C@H]4CN5C4CCS(=O)(=O)C4)c(C)c3c2C(C)C)cn2ncnc2c1C (stereo partly drawn) [Example 294, 3-[(1S,4R)-5-[5-(7,8-dimethyl-[1,2,4]triazolo[1,5-a]pyridin-6-yl)-4-isopropyl-3-methyl-6H-thieno[2,3-b]pyrrol-2-yl]-2-azabicyclo[2.2.1]heptan-2-yl]thiolane 1,1-dioxide] | 2.77 |  | 0.71 |  |  |  |
| Cc1c(-c2[nH]c3sc(C4CCN(C(=O)[C@H]5C[C@@]6(CN(CCO)CCO6)C5)CC4)c(C)c3c2C(C)C)cn2ncnc2c1C [Example 295, [4-[5-(7,8-dimethyl-[1,2,4]triazolo[1,5-a]pyridin-6-yl)-4-isopropyl-3-methyl-6H-thieno[2,3-b]pyrrol-2-yl]-1-piperidyl]-[8-(2-hydroxethyl)-5-oxa-8-azaspiro[3.5]nonan-2-yl]methanone] | 18.5 |  | 0.06 |  |  |  |
| Cc1c(-c2[nH]c3sc(C4CCN(C(=O)[C@H]5C[C@@]6(CN(C)CCO6)C5)CC4)c(C)c3c2C(C)C)cn2ncnc2c1C [Example 296, [4-[5-(7,8-dimethyl-[1,2,4]triazolo[1,5-a]pyridin-6-yl)-4-isopropyl-3-methyl-6H-thieno[2,3-b]pyrrol-2-yl]-1-piperidyl]-(8-methyl-5-oxa-8-azaspiro[3.5]nonan-2-yl)methanone] | 8.94 |  | < 0.05 |  |  |  |
| Cc1c(-c2[nH]c3sc([C@@H]4C[C@@H]5C[C@H]4CN5C4CC5(CCNC5=O)C4)c(C)c3c2C(C)C)cn2ncnc2c1C (some centres unmarked) [Example 297] | 0.61 |  | < 0.05 |  |  |  |
| Cc1c(-c2[nH]c3sc(C4CCN(C(=O)[C@H]5C[C@@]6(CN(CC(F)F)CCO6)C5)CC4)c(C)c3c2C(C)C)cn2ncnc2c1C [Example 298, [8-(2,2-difluoroethyl)-5-oxa-8-azaspiro[3.5]nonan-2-yl]-[4-[5-(7,8-dimethyl-[1,2,4]triazolo[1,5-a]pyridin-6-yl)-4-isopropyl-3-methyl-6H-thieno[2,3-b]pyrrol-2-yl]-1-piperidyl]methanone] | 12.2 |  | < 0.05 |  |  |  |
| Cc1c(-c2[nH]c3sc(C4CCC(N5CC6(CCNC6=O)C5)CC4)c(C)c3c2C(C)C)cn2ncnc2c1C (centres unmarked) [Example 299, 2-[4-[5-(7,8-dimethyl-[1,2,4]triazolo[1,5-a]pyridin-6-yl)-4-isopropyl-3-methyl-6H-thieno[2,3-b]pyrrol-2-yl]cyclohexyl]-2,6-diazaspiro[3.4]octan-5-one] | 2.17 |  | 0.1 |  |  |  |
| Cc1c(-c2[nH]c3sc(C4CCC(N5CC6(CCO6)C5)CC4)c(C)c3c2C(C)C)cn2ncnc2c1C (centres unmarked) [Example 300] | 1.85 |  | 0.22 |  |  |  |
| Cc1c(-c2[nH]c3sc(C4CCC(N5CC6(C5)CS(=O)(=O)C6)CC4)c(C)c3c2C(C)C)cn2ncnc2c1C (centres unmarked) [Example 301] | 5.66 |  | 0.13 |  |  |  |
| Cc1c(-c2[nH]c3sc(C4CCC(N5CC[C@H](F)C5)CC4)c(C)c3c2C(C)C)cn2ncnc2c1C (some centres unmarked) [Example 302] | 6.4 |  | 0.1 |  |  |  |
| Cc1c(-c2[nH]c3sc(C4CCC(N5CC[C@@H](F)C5)CC4)c(C)c3c2C(C)C)cn2ncnc2c1C (some centres unmarked) [Example 303] | 2.77 |  | < 0.05 |  |  |  |
| Cc1c(-c2[nH]c3sc(C4CCC(N5CC(C)(O)C5)CC4)c(C)c3c2C(C)C)cn2ncnc2c1C (centres unmarked) [Example 304] | 1.76 |  | < 0.05 |  |  |  |
| Cc1c(-c2[nH]c3sc([C@@H]4C[C@@H]5C[C@H]4CN5CCS(=O)(=O)CCO)c(C)c3c2C(C)C)cn2ncnc2c1C [Example 307, 2-((2-((1S,4R,5R)-5-(5-(7,8-dimethyl-[1,2,4]triazolo[1,5-a]pyridin-6-yl)-4 isopropyl-3-methyl-6H-thieno[2,3-b]pyrrol-2-yl)-2-azabicyclo[2.2.1]heptan-2-yl)ethyl)sulfonyl)ethan-1-ol] | 0.25 |  | 0.21 |  |  |  |
| Cc1c(-c2[nH]c3sc([C@@H]4C[C@@H]5C[C@H]4CN5C(CO)CO)c(C)c3c2C(C)C)cn2ncnc2c1C [Example 308, 2-((1S,4R,5R)-5-(5-(7,8-dimethyl-[1,2,4]triazolo[1,5-a]pyridin-6-yl)-4 isopropyl-3-methyl-6H-thieno[2,3-b]pyrrol-2-yl)-2-azabicyclo[2.2.1]heptan-2-yl)propane-1,3-diol] | 1.16 |  | < 0.05 |  |  |  |
| Cc1c(-c2[nH]c3sc(C4CCC(C(=O)N5CCNCC5)CC4)c(C)c3c2C(C)C)cn2ncnc2c1C (centres unmarked) [Example 309, (4-(5-(7,8-dimethyl-[1,2,4]triazolo[1,5-a]pyridin-6-yl)-4-isopropyl-3-methyl-6H-thieno[2,3-b]pyrrol-2-yl)cyclohexyl)(piperazin-1-yl)methanone] | 8.07 |  | 0.14 |  |  |  |
| Cc1c(C2CCC(C(=O)N3CCNCC3)CC2)sc2[nH]c(-c3cc(C)c4ncnn4c3)c(C(C)C)c12 (centres unmarked) [Example 310] | 9.94 |  | 0.25 |  |  |  |
| Cc1c(-c2[nH]c3ccc(C4CCN(CC(N)=O)CC4)cc3c2C(C)C)cn2ncnc2c1C [Example A-1, reference compound] |  | < 1 |  | 300 | 4.5 |  |
